Results reported in PubChem BioAssay AID1963841 (Molecular Pharmacology Branch, DTP, NCI, 2024).
“And” between values parts separate entries of the source, which are not always exact repeats. Equal entries are not always repeated.

Tested on: 439559-082-T-J2-PDC spheroid viability
Experiment: Anticancer human tumor 439559-082-T-J2-PDC patient-derived colon adenocarcinoma cell line growth inhibition [POLQ]
Details: spheroids with HUVEC and MSC; for viability, T/C: stronger effect = lower value
Protocol: Multicellular complex tumor spheroid response to Polymerase (POL) inhibitors (novobiocin, ART-558, RP6685) in combination with a variety of drugs and investigational agents in selected tumor cell lines
The POL inhibitors (novobiocin, ART-558, and RP6685) were evaluated both individually and in combination with standard of care and investigational anticancer small molecules within a complex spheroid model of solid tumors. . Complex spheroids include a stromal component modeled by human endothelial cells (HUVEC) and fibroblasts modeled by human mesenchymal stem cells (MSCs). The concentration ranges selected for each drug and investigational agent were based upon clinically achievable concentrations if the clinical Cmax of the agent was known.
Compounds. The drugs and investigational agents: novobiocin (NSC847541), ART-558 (NSC835418), RP-6685 (NSC848927), peposertib (NSC802822), ceralasertib (NSC780249), elimusertib (NSC800525), camonsertib (NSC841442), AZD-1390 (NSC803789), olaparib (NSC753686), talazoparib (NSC767125), rucaparib (NSC756644), sotorasib (NSC818433), MRTX-1133 (NSC836407), SN-38 (NSC673596), topotecan (NSC609699), epotoside (NSC141540), doxorubicin (NSC123127), gemcitabine (NSC613327), 5-fluorouracil (NSC19893), paclitaxel (NSC125973), vemurafenib (NSC761431), MSA-2 (NSC828583), SN-011 (NSC837082), adavosertib (NSC754352), prexasertib (NSC758257), carboplatin (NSC241240) and oxaliplatin (NSC266046), were obtained from the National Cancer Institute (NCI) Developmental Therapeutics Program Chemical Repository (21). The FDA-approved anticancer drug set is available from the Developmental Therapeutics Program at https://dtp.cancer.gov/organization/dscb/obtaining/. […] The stock solutions were prepared in dimethyl sulfoxide (DMSO, Sigma-Aldrich, St. Louis, MO, cat. D2650), except for the platinum compounds which were prepared in saline (Quality Biological, Gaithersburg, MD, cat. 114-055-101), at 800-fold the tested concentration and stored at -70 degrees C prior to their use. All drugs and investigational agents were tested over a range starting from a high concentration at or near the clinical Cmax and decreasing in half-log increments. If the clinical Cmax for an agent had not been determined, the highest concentration tested was 10 microM, except for SN-38, which was tested at a high concentration of 1 microM.
Cell Culture. All cells were maintained in an incubator at 37 degrees C and 5% CO2 with 95% humidity. The PDC lines were cultured according to standard operating procedures established by the NCI PDMR (https://pdmr.cancer.gov). Table 3 of the manuscript, lists the cell lines along with the number of the three cell types plated to form the mct-spheroids and media for tumor cell growth. After thawing, all PDC lines, except 997537-175-T-J1-PDC and 415267-285-R-J2-PDC, were cultured in Matrigel-coated flasks prepared with a working solution of 1X Ham's F-12 nutrient mix, without supplementation (Thermo Fisher Scientific, cat. 11765054), 100 U/mL penicillin-streptomycin (Thermo Fisher Scientific, cat. 15140122), and 2.5% Matrigel (Corning Inc., Corning, NY, cat. 354248) for the first three passages. The two PDC lines 997537-175-T-J1-PDC and 415267-285-R-J2-PDC were cultured on uncoated flasks. The 857933-349-R-J2-PDC line was cultured in 6C/Colon 1B media containing advanced DMEM/F-12 (Thermo Fisher Scientific, cat. 12634028), 10 mM HEPES (Thermo Fisher Scientific, cat. 15630080), 1X GlutaMAX supplement (Thermo Fisher Scientific, cat. 35050061), 0.1 mg/mL primocin (InvivoGen, San Diego, CA, cat. ant-pm-2), 10% defined fetal bovine serum, heat inactivated (HyClone Laboratories Inc., Logan, UT, cat. SH30070.03HI), 50% L-WRN conditioned media (ATCC, cat. CRL-3276), 1.25 mM N-Acetyl-L-cysteine (Sigma-Aldrich, cat. A9165), 10 mM nicotinamide (Sigma-Aldrich, cat. N0636), 1X B-27 supplement (Thermo Fisher Scientific, cat. 17504044), 1X N-2 supplement (Thermo Fisher Scientific, cat. […]
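Further: spheroids exposed to compounds for seven days before readout.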
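Wherever viability, T/C is given: 100% = DMSO vehicle control viability.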

## CCc1cc2c(N3CCc4c(cc(Cn5ccnc5)cc4-c4cn(C)nc4C(F)(F)F)C3=O)cc(C)nc2c(OC)n1
Compound 0.0316 µM
  viability, T/C: 105% and 93.7% and 95.3%
Compound 0.1 µM
  viability, T/C: 94.8% and 96.5% and 90.4%
Compound 0.316 µM
  viability, T/C: 94.4% and 95.2% and 87.4%
Compound 1 µM
  viability, T/C: 103% and 91.7% and 94.3%
Compound 3.16 µM
  viability, T/C: 99.1% and 101% and 92.2%
Compound 10 µM
  viability, T/C: 94.1% and 90.4% and 87.9%
Curve of compound
  IC50: > 10 µM

## O=C(c1cc(Cc2n[nH]c(=O)c3ccccc23)ccc1F)N1CCN(C(=O)C2CC2)CC1 + Cc1cccc(N(C)C(=O)C2C(O)CCN2c2nc(C)cc(C(F)(F)F)c2C#N)c1
Curve of first compound, second compound 0.0316 µM
  IC50: > 10 µM
Curve of first compound, second compound 0.1 µM
  IC50: > 10 µM
Curve of first compound, second compound 0.316 µM
  IC50: > 10 µM
Curve of first compound, second compound 1 µM
  IC50: > 10 µM
Curve of first compound, second compound 3.16 µM
  IC50: > 10 µM
Curve of first compound, second compound 10 µM
  IC50: > 10 µM
Second compound 0.0316 µM, first compound 0.0316 µM
  viability, T/C: 95.8%
Second compound 0.0316 µM, first compound 0.1 µM
  viability, T/C: 103%
Second compound 0.0316 µM, first compound 0.316 µM
  viability, T/C: 107%
Second compound 0.0316 µM, first compound 1 µM
  viability, T/C: 107%
Second compound 0.0316 µM, first compound 3.16 µM
  viability, T/C: 95%
Second compound 0.0316 µM, first compound 10 µM
  viability, T/C: 92.1%
Second compound 0.1 µM, first compound 0.0316 µM
  viability, T/C: 103%
Second compound 0.1 µM, first compound 0.1 µM
  viability, T/C: 98.7%
Second compound 0.1 µM, first compound 0.316 µM
  viability, T/C: 101%
Second compound 0.1 µM, first compound 1 µM
  viability, T/C: 109%
Second compound 0.1 µM, first compound 3.16 µM
  viability, T/C: 94.4%
Second compound 0.1 µM, first compound 10 µM
  viability, T/C: 101%
Second compound 0.316 µM, first compound 0.0316 µM
  viability, T/C: 103%
Second compound 0.316 µM, first compound 0.1 µM
  viability, T/C: 100%
Second compound 0.316 µM, first compound 0.316 µM
  viability, T/C: 98.4%
Second compound 0.316 µM, first compound 1 µM
  viability, T/C: 108%
Second compound 0.316 µM, first compound 3.16 µM
  viability, T/C: 102%
Second compound 0.316 µM, first compound 10 µM
  viability, T/C: 97.1%
Second compound 1 µM, first compound 0.0316 µM
  viability, T/C: 103%
Second compound 1 µM, first compound 0.1 µM
  viability, T/C: 106%
Second compound 1 µM, first compound 0.316 µM
  viability, T/C: 102%
Second compound 1 µM, first compound 1 µM
  viability, T/C: 103%
Second compound 1 µM, first compound 3.16 µM
  viability, T/C: 98.8%
Second compound 1 µM, first compound 10 µM
  viability, T/C: 98.8%
Second compound 3.16 µM, first compound 0.0316 µM
  viability, T/C: 94%
Second compound 3.16 µM, first compound 0.1 µM
  viability, T/C: 106%
Second compound 3.16 µM, first compound 0.316 µM
  viability, T/C: 98.4%
Second compound 3.16 µM, first compound 1 µM
  viability, T/C: 98.3%
Second compound 3.16 µM, first compound 3.16 µM
  viability, T/C: 103%
Second compound 3.16 µM, first compound 10 µM
  viability, T/C: 95.2%
Second compound 10 µM, first compound 0.0316 µM
  viability, T/C: 97.9%
Second compound 10 µM, first compound 0.1 µM
  viability, T/C: 91.4%
Second compound 10 µM, first compound 0.316 µM
  viability, T/C: 95.3%
Second compound 10 µM, first compound 1 µM
  viability, T/C: 98.3%
Second compound 10 µM, first compound 3.16 µM
  viability, T/C: 97.5%
Second compound 10 µM, first compound 10 µM
  viability, T/C: 83.6%

## CCc1cc2c(N3CCc4c(cc(Cn5ccnc5)cc4-c4cn(C)nc4C(F)(F)F)C3=O)ccnc2c(OC)n1
Compound 0.0316 µM
  viability, T/C: 96.6% and 87.7% and 94.8%
Compound 0.1 µM
  viability, T/C: 100% and 94.5% and 93.2%
Compound 0.316 µM
  viability, T/C: 102% and 101% and 87.4%
Compound 1 µM
  viability, T/C: 101% and 95% and 96%
Compound 3.16 µM
  viability, T/C: 107% and 95% and 90.8%
Compound 10 µM
  viability, T/C: 94.8% and 89.2% and 94.2%
Curve of compound
  IC50: > 10 µM
